Laboratory results published in US20250122221A1 (NANJING ZAIMING PHARMACEUTICAL CO., LTD., priority 2022, published 2025).
Where two headings read alike, the source gives them in different places.

Experiments:
[1] = molecular target: N-terminal active peptide segment (MI-N899) of POLQ with ATPase activity (Homo sapiens (Human), UniProt O75417); assay: POLQ enzyme activity inhibition experiment (ATPase, NADH-coupled, OD 340 nm); type: biochemical; conditions: 100 nM POLQ (N), 100 μM ATP, 300 nM dT50
N-terminal active peptide segment (MI-N899) of POLQ with ATPase activity, sequence (O75417 1-899 limits assumed): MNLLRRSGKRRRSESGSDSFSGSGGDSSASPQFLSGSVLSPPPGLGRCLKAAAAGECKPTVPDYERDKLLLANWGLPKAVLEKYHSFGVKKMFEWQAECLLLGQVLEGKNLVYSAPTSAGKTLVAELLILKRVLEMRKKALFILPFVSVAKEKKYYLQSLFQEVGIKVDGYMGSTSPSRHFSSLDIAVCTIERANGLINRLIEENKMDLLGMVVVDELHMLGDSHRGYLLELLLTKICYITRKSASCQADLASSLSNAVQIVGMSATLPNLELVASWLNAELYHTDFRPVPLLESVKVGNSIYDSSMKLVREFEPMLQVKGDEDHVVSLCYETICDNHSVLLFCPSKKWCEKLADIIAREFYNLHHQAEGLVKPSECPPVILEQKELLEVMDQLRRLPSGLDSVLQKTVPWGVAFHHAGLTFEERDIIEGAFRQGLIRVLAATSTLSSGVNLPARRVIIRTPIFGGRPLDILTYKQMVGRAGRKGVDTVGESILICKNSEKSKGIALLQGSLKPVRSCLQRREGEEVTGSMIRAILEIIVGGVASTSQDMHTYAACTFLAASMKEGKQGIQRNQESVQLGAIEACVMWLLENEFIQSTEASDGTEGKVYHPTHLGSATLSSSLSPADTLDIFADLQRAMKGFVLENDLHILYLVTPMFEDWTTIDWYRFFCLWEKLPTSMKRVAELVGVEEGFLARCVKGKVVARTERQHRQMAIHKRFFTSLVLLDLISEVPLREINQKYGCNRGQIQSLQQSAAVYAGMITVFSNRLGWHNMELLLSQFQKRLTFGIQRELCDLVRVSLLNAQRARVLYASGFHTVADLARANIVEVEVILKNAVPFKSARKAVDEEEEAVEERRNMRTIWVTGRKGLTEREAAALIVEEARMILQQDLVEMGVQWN
Description: The Envision microplate reader from Perkin Elmer Inc was used to measure the reduction of OD value of NADH at 340 nm, thus reflecting the enzyme activity. Experimental method: The POLQ enzyme was diluted to 100 nM with a reaction buffer (20 mM Tris HCl (pH 7.80), 80 mM KCl, 10 mM MgCl2, 1 mM DTT, 0.01% w/v bovine serum albumin, 0.01% v/v Tween-20, and 5% v/v glycerol). The compounds to be tested were diluted to different concentrations in dimethyl sulfoxide (DMSO) using the Echo 650 pipetting system, and transferred to a 384-well plate, 20 μL/well of 100 nM POLQ was added, and the mixture was incubated at room temperature for 15 minutes. A reaction mixture solution was formulated, and the concentration of each component in the reaction mixture solution was: 100 μM ATP, 300 nM […], 300 μM NADH, 6 mM PEP, 10 U/mL lactate dehydrogenase and 20 U/mL pyruvate kinase. 20 μL/well of reaction mixture solution was added to start the enzyme reaction. […] The concentration range was from 10 μM to 0.0005 μM, and the final concentration of DMSO in the system was 0.2% v/v. The 384-well plate was reacted at room temperature for 20 minutes, and then the OD value at 340 nm was read with an Envision microplate reader. The inhibition rate was calculated, and XLfit software was used to perform fitting to obtain IC50 of the compounds. In the experiment, a blank group and a DMSO group were set up, respectively.

[2] = system: DLD-1 BRCA2 (−/−) cells; assay: Inhibition of tumour cell proliferation, 7 days, CTG; type: cell-based; conditions: Homo sapiens, read-out: DLD-1 BRCA2 (−/−) IC50
Description: (§1) Brief introduction to the experimental principle: The compounds were co-incubated with tumour cells for 7 days, and then a CTG kit from Promega Inc was used to quantify ATP in viable cells, thus reflecting the effect of the compounds on tumour cell proliferation.
(§2) Experimental method: DLD-1 parental cells or DLD-1 BRCA2 (−/−) cells were diluted with RPMI 1640 medium containing 10% FBS, and then added to a 96-well plate (90 μL/well), with the number of cells being 600 cells/well or 1200 cells/well, respectively, and cultured overnight in a 37° C., 5% CO2 incubator. The compounds to be tested were diluted to different concentrations in dimethyl sulfoxide (DMSO), and then added to a 96-well plate. The final concentration of the compounds in the reaction system started from 25 μM, and was subjected to 4-fold gradient dilution. The concentration range of the compounds was from 25 μM to 0.0004 μM, and the final concentration of DMSO was 0.25% v/v. After 7 days of incubation, 50 μL/well CTG was added, and the mixture was incubated at room temperature for 10 minutes. Subsequently, the luminescence (Lum) signal value was read with an Envision microplate reader, and the inhibition rate and half inhibitory concentration (IC50) were calculated.
(§3) The inhibition rate was calculated, and XLfit software was used to perform fitting to obtain IC50 of the compounds.
(§4) In the experiment, a blank well and a DMSO well were set up, respectively.
(§5) Inhibition rate=100*(Lummax−Lumcompound)/(Lummax−Lummin)%, • where Lummax refers to the luminescence signal value of the well containing cells and 0.25% v/v DMSO; Lumcompound refers to the luminescence signal value of the well containing the compound and cells; and Lummin refers to the luminescence signal value of the well containing the medium and 0.25% v/v DMSO.

[3] = system: DLD-1 parental cells; assay: as above; type: cell-based; conditions: Homo sapiens, read-out: DLD-1 parental cell IC50
Description: as §1, §2, §3, §4, §5

[4] = 168 h, DLD-1 BRCA2 (−/−) cells, 7 days of incubation, CTG
[5] = 168 h, DLD-1 parental cells, 7 days of incubation, CTG

IC50 [1] | IC50 [2, 4] | Compound | IC50 [3, 5] | IC50 ([2]; DLD-1, 168 h) | IC50 ([3]; DLD-1, 168 h)
< 100 nM | < 200 nM | COc1ccccc1-c1cnccc1C(=O)Nc1nc2ncc(-c3ccc(C#N)cc3)nc2s1 [Compound 9, N-(6-(4-cyanophenyl)thiazolo[4,5-b]pyrazin-2-yl)-3-(2-methoxyphenyl)pyridine-4-carboxamide] | > 10000 nM | – | –
< 100 nM | 200 to 500 nM | COc1ccccc1-c1ccncc1C(=O)Nc1nc2ncc(-c3ccc(C#N)cc3)nc2s1 [Compound 16, N-(6-(4-cyanophenyl)thiazolo[4,5-b]pyrazin-2-yl)-4-(2-methoxyphenyl)nicotinamide] | > 10000 nM | – | –
< 100 nM | < 200 nM | COc1ccc(Cl)cc1-c1cc(C)ncc1C(=O)Nc1nc2ncc(-c3ccc(C#N)cn3)nc2s1 [Compound 26, 4-(5-chloro-2-methoxyphenyl)-N-(6-(5-cyanopyridin-2-yl)thiazolo[4,5-b]pyrazin-2-yl)-6-methylnicotinamide] | > 10000 nM | – | –
< 100 nM | < 200 nM | COc1cnc(C)cc1-c1cc(C)ncc1C(=O)Nc1nc2ncc(-c3ccc(C(F)(F)F)cn3)nc2s1 [Compound 27, 5′-methoxy-2′,6-dimethyl-N-(6-(5-(trifluoromethyl)pyridin-2-yl)thiazolo[4,5-b]pyrazin-2-yl)-[4,4′-bipyridine]-3-carboxamide] | > 10000 nM | – | –
< 100 nM | 200 to 500 nM | COc1ccccc1-n1cncc1C(=O)Nc1nc2ncc(-c3ccc(C#N)cc3)nc2s1 [Compound 32, N-(6-(4-cyanophenyl)thiazolo[4,5-b]pyrazin-2-yl)-1-(2-methoxyphenyl)-1H-imidazole-5-carboxamide] | > 10000 nM | – | –
< 100 nM | – | COc1cnc(C)cc1-c1cc(C)ncc1C(=O)Nc1nc2ncc(-c3ccc(Cl)cc3)nc2s1 [Compound 67, N-(6-(4-chlorophenyl)thiazolo[4,5-b]pyrazin-2-yl)-5′-methoxy-2′,6-dimethyl-[4,4′-bipyridine]-3-carboxamide] | – | – | –
< 100 nM | – | COc1cnc(C)c(F)c1-c1cc(C)ncc1C(=O)Nc1nc2ncc(-c3ccc(C#N)cc3)nc2s1 [Compound 76, N-(6-(4-cyanophenyl)thiazolo[4,5-b]pyrazin-2-yl)-3′-fluoro-5′-methoxy-2′,6-dimethyl-[4,4′-bipyridine]-3-carboxamide] | – | – | –
< 100 nM | – | Cc1cc(-c2cc(Cl)ccc2OC(F)F)c(C(=O)Nc2nc3ncc(-c4ccc(C#N)cc4)nc3s2)cn1 [Compound 89, 4-(5-chloro-2-(difluoromethoxy)phenyl)-N-(6-(4-cyanophenyl)thiazolo[4,5-b]pyrazin-2-yl)-6-methylpyridine-3-carboxamide] | – | – | –

More lines, now with the values behind:

Compound | IC50 [1] | IC50 [2, 4] | IC50 [3, 5] | IC50 ([2]; DLD-1, 168 h) | IC50 ([3]; DLD-1, 168 h)
COc1cnc(Cl)cc1-c1cc(C)ncc1C(=O)Nc1nc2ncc(-c3ccc(C#N)cc3)nc2s1 [Compound 20, 2′-chloro-N-(6-(4-cyanophenyl)thiazolo[4,5-b]pyrazin-2-yl)-5′-methoxy-6-methyl-[4,4′-bipyridine]-3-carboxamide] | < 100 nM | < 200 nM | > 10000 nM | – | –
COc1cnc(C)cc1-c1cc(C)ncc1C(=O)Nc1nc2ncc(-c3ccc(C#N)cc3)nc2s1 [Compound 21, N-(6-(4-cyanophenyl)thiazolo[4,5-b]pyrazin-2-yl)-5′-methoxy-2′,6-dimethyl-[4,4′-bipyridine]-3-carboxamide] | < 100 nM | < 200 nM | > 10000 nM | – | –
COc1cnc(C)cc1-c1cc(C)ncc1C(=O)Nc1nc2ncc(-c3ccc(C4CC4)cn3)nc2s1 [Compound 24, N-(6-(5-cyclopropylpyridin-2-yl)thiazolo[4,5-b]pyrazin-2-yl)-5′-methoxy-2′,6-dimethyl-[4,4′-bipyridine]-3-carboxamide] | < 100 nM | < 200 nM | > 10000 nM | – | –
COc1cnc(C)cc1-c1cc(C)ncc1C(=O)Nc1nc2ncc(-c3ccc(OC(F)F)cn3)nc2s1 [Compound 25, N-(6-(5-(difluoromethoxy)pyridin-2-yl)thiazolo[4,5-b]pyrazin-2-yl)-5′-methoxy-2′,6-dimethyl-[4,4′-bipyridine]-3-carboxamide] | < 100 nM | < 200 nM | > 10000 nM | – | –
C#Cc1ccccc1-c1cnccc1C(=O)Nc1nc2ncc(-c3ccc(C#N)cc3)nc2s1 [Compound 30, N-(6-(4-cyanophenyl)thiazolo[4,5-b]pyrazin-2-yl)-3-(2-ethynylphenyl)pyridine-4-carboxamide] | < 100 nM | – | – | < 200 nM | > 10000 nM
COc1ccc(C#N)cc1-c1cc(C#N)ncc1C(=O)Nc1nc2ncc(-c3ccc(C#N)cc3)nc2s1 [Compound 33, 6-cyano-4-(5-cyano-2-methoxyphenyl)-N-(6-(4-cyanophenyl)thiazolo[4,5-b]pyrazin-2-yl)pyridine-3-carboxamide] | < 100 nM | < 200 nM | > 10000 nM | – | –
COc1cccc(F)c1-c1cnccc1C(=O)Nc1nc2ncc(-c3ccc(C#N)cc3)nc2s1 [Compound 34, N-(6-(4-cyanophenyl)thiazolo[4,5-b]pyrazin-2-yl)-3-(2-fluoro-6-methoxyphenyl)pyridine-4-carboxamide] | < 100 nM | < 200 nM | > 10000 nM | – | –
C#Cc1cnc(C)cc1-c1cc(C)ncc1C(=O)Nc1nc2ncc(-c3ccc(C#N)cc3)nc2s1 [Compound 64, N-(6-(4-cyanophenyl)thiazolo[4,5-b]pyrazin-2-yl)-5′-ethynyl-2′,6-dimethyl-[4,4′-bipyridine]-3-carboxamide] | < 100 nM | – | – | – | –
COc1cnc(C#N)cc1-c1cc(C)ncc1C(=O)Nc1nc2ncc(-c3ccc(Cl)cn3)nc2s1 [Compound 65, N-(6-(5-chloropyridin-2-yl)thiazolo[4,5-b]pyrazin-2-yl)-2′-cyano-5′-methoxy-6-methyl-[4,4′-bipyridine]-3-carboxamide] | < 100 nM | – | – | – | –
COc1cnc(C)cc1-c1cc(C)ncc1C(=O)Nc1nc2ncc(-c3ccc(Cl)cn3)nc2s1 [Compound 66, N-(6-(5-chloropyridin-2-yl)thiazolo[4,5-b]pyrazin-2-yl)-5′-methoxy-2′,6-dimethyl-[4,4′-bipyridine]-3-carboxamide] | < 100 nM | – | – | – | –
COc1cnc(C)cc1-c1cc(C)ncc1C(=O)Nc1nc2ncc(C3CCOC3)nc2s1 (centres unmarked) [Compound 69-P1, N-(6-(tetrahydrofuran-3-yl)thiazolo[4,5-b]pyrazin-2-yl)-5′-methoxy-2′,6-dimethyl-[4,4′-bipyridine]-3-carboxamide] | < 100 nM | – | – | – | –
COc1cnc(C)cc1-c1cc(C)ncc1C(=O)Nc1nc2ncc(-c3ccc(C#N)cc3F)nc2s1 [Compound 70, N-(6-(4-cyano-2-fluorophenyl)thiazolo[4,5-b]pyrazin-2-yl)-5′-methoxy-2′,6-dimethyl-[4,4′-bipyridine]-3-carboxamide] | < 100 nM | – | – | – | –
COc1ccc(Cl)cc1-c1cc(C)ncc1C(=O)Nc1nc2ncc(-c3ccc(Cl)cn3)nc2s1 [Compound 71, 4-(5-chloro-2-methoxyphenyl)-N-(6-(5-chloropyridin-2-yl)thiazolo[4,5-b]pyrazin-2-yl)-6-methylpyridine-3-carboxamide] | < 100 nM | – | – | – | –
Cc1cc(-c2cc(Cl)ccc2C(F)(F)F)c(C(=O)Nc2nc3ncc(-c4ccc(C#N)cc4)nc3s2)cn1 [Compound 88, 4-(5-chloro-2-(trifluoromethyl)phenyl)-N-(6-(4-cyanophenyl)thiazolo[4,5-b]pyrazin-2-yl)-6-methylpyridine-3-carboxamide] | < 100 nM | – | – | – | –
Cc1cc(-c2cc(Cl)ccc2OC(F)(F)F)c(C(=O)Nc2nc3ncc(-c4ccc(C#N)cc4)nc3s2)cn1 [Compound 90, 4-(5-chloro-2-(trifluoromethoxy)phenyl)-N-(6-(4-cyanophenyl)thiazolo[4,5-b]pyrazin-2-yl)-6-methylpyridine-3-carboxamide] | < 100 nM | – | – | – | –
